Results from patent US11104593B2, “Compositions exhibiting synergy in biofilm control” (SOLENIS TECHNOLOGIES, L.P., priority 2017, dated 2021).

Tested on: Pseudomonas putida biofilms
Experiment: Biofilm eradication (MBEC) test: viable plate counts of biofilms on stainless steel 316 coupons from a CDC Biofilm reactor after two hours of treatment
Assay type: cell-based
Conditions: 20 mg/L MCA alone, viable biofilm population vs untreated control, 2 h, 28° C.
Description: In this work the efficacy of the agents alone and in combination were determined by measuring the number of viable cells in model biofilms remaining after treatment. The Minimum Biofilm Eradication value (MBEC) is defined as a 95% reduction in the number of viable cells compared to the untreated control.
Dose response studies were performed to determine the Minimum Biofilm Eradication Concentration (MBEC) for monochloramine and PEI alone. The MBEC is defined as the concentration of agent that reduces the viable biofilm population by 95% of the untreated control value as measured by viable plate counts. Experiments were then performed to determine the result of combining the two agents, oxidizing biocide monochloramine and dispersant PEI alone, on biofilm populations. The experiments examined three concentrations of monochloramine with four concentrations of PEI alone.
M9YG media is a simple minimal salt medium supplemented with 500 mg/L glucose and 0.01% yeast extract. The salts composition was intended to mimic a typical cooling tower water composition. […]
Briefly, biofilms were grown on stainless steel 316 coupons in a CDC Biofilm reactor using M9YG minimal salts growth media for a period of twenty-four hours. […] Viable cells released into the fluid were then determined by a plating method.

SMILES: NCl [MCA, monochloramine]
- % reduction: 93.58%
- % reduction (listed as monochloramine): greater than 90%
